Data: paper PMC7932537, “Quantitative profiling of protease specificity” (PLoS Computational Biology, 2021)

Assays:
MMP-2 = assay: Substrate phage display with NGS: relative probability (RP) of P3-P1' tetramer clusters; assay type: biochemical, human; conditions: for avg_RP: MMP2 - no binning; for MMP2 relative probability (RP): MMP2 tetramers from unique substrates, unrounded values; for relative_probability: tetramer clusters unique to the MMP-2 selectome, MMP-2 RP; for relative probability (RP) of matching tetramer: P3-P1' tetramer matching the MS detected MMP2 cleavage sequence, RP_above_4.5; for normalized RP - MMP2: normalized RP of matching tetramer
MMP-9 = assay: as above; assay type: biochemical, human; conditions: for corresponding MMP9 relative probability (RP): MMP2 tetramers from unique substrates, RP of same tetramer for MMP9; for normalized RP - MMP9: normalized RP of matching tetramer
[1] = RP of the P3-P1' tetramer cluster contained in the hexamer, 200 nM MMP-2, 2 h, 37°C, two rounds of selection
[2] = MMP9, RP of the P3-P1' tetramer contained in the hexamer substrate (substrate phage display, NGS)
[3] = RP according to MMP2, P3-P1' tetramer of unique physiologic MMP2 substrates from MEROPS
[4] = RP of the P3-P1' tetramer, MMP2 substrate phage display/NGS, tetramers of physiologic MEROPS substrates common to MMP2 and MMP9
[5] = RP of the P3-P1' tetramer, MMP9 substrate phage display/NGS, tetramers of physiologic MEROPS substrates common to MMP2 and MMP9
[6] = MMP2, RP of matching P3-P1' tetramer, common set of MMP2-9 selectome, RP above KL threshold
[7] = RP of matching tetramer, common MMP2-9 selectome
[8] = MMP9, RP of matching P3-P1' tetramer, common set of MMP2-9 selectome
[9] = MMP9, RP of the P3-P1' tetramer matching the MS detected cleavage, RP above 4.7, substrate phage display with NGS
[10] = RP of matching tetramer, common MMP2-9 selectome, RP above KL threshold
[11] = RP of matching tetramer, unique part of MMP2 selectome, RP above KL threshold
[12] = RP of matching tetramer, unique part of MMP2 selectome
[13] = RP according to MMP9, P3-P1' tetramer of unique physiologic MMP9 substrates from MEROPS

## KSPQSY
MMP-2; [1]
  relative probability (RP): 26.1515
MMP-9; [2]
  relative probability (RP): 42.416

## KSPSRL
MMP-2; [1]
  relative probability (RP): 31.7732
MMP-9; [2]
  relative probability (RP): 39.8157

## KSPVGV
MMP-2; [1]
  relative probability (RP): 27.6556
MMP-9; [2]
  relative probability (RP): 34.3287

## LAEL [P3-P1' tetramer cluster]
MMP-2; average relative probability of the tetramer, redundant tetramers averaged out
  avg_RP: 27.078
MMP-9; tetramer projected onto MMP-9 cleavage sites determined by Prudova et al. (2010)
  relative probability (RP): 0.44

## LAGL [P3-P1' tetramer cluster]
MMP-2
  MMP2 relative probability (RP): 32.2383
  relative_probability: 32.24
MMP-2; [3]
  Relative probability (RP) rank: 174
  relative probability (RP): 32.24
MMP-9
  corresponding MMP9 relative probability (RP): 1.413

## LAHA
MMP-2
  MMP2 relative probability (RP): 10.8276
MMP-2; [3]
  Relative probability (RP) rank: 4607
  relative probability (RP): 10.83
MMP-2; tetramer annotation of MMP-2 cleavage sites in physiologic substrates from MEROPS
  relative probability (RP): 10.83
MMP-9
  corresponding MMP9 relative probability (RP): 0.5961

## LANM
MMP-2; average relative probability (RP) of the P3-P1' tetramer, redundant tetramers have been averaged out
  avg_RP: 31.4114
MMP-2; [4]
  relative probability (RP) (acc.to MMP2): 31.41
MMP-9; [5]
  relative probability (RP) (acc.to MMP9): 5.47

## LAPL [P3-P1' tetramer cluster]
MMP-2
  MMP2 relative probability (RP): 31.5631
  relative_probability: 31.56
MMP-2; [3]
  Relative probability (RP) rank: 227
  relative probability (RP): 31.56
MMP-9
  corresponding MMP9 relative probability (RP): 4.642

## LAWL
MMP-2; average relative probability of the P3-P1' tetramer, redundant tetramers have been averaged out
  avg_RP: 22.0358
MMP-2; [6]
  relative probability (RP) (acc.to MMP2): 22.04
MMP-2
  relative probability (RP) of matching tetramer: 22.04
MMP-2; [7]
  relative probability (RP) (acc.to MMP2): 22.04
MMP-9; [8]
  relative probability (RP) (acc.to MMP9): 19.78
MMP-9; [9]
  relative probability (RP): 19.78
MMP-9; [10]
  relative probability (RP) (acc.to MMP9): 19.78

## LAYL
MMP-2
  relative probability (RP) of matching tetramer: 25.34
MMP-2; [11]
  relative probability (RP) (acc.to MMP2): 25.34
MMP-2; unique part of MMP2 selectome
  normalized RP - MMP2: 0.6939
MMP-9; [12]
  relative probability (RP) (acc.to MMP9): 2.51
MMP-9; unique part of MMP2 selectome
  normalized RP - MMP9: 0.04792

## LFGL
MMP-2; [6]
  relative probability (RP) (acc.to MMP2): 12.87
MMP-2
  relative probability (RP) of matching tetramer: 12.87
MMP-2; [7]
  relative probability (RP) (acc.to MMP2): 12.87
MMP-9; [8]
  relative probability (RP) (acc.to MMP9): 14.17
MMP-9; [9]
  relative probability (RP): 14.17
MMP-9; [10]
  relative probability (RP) (acc.to MMP9): 14.17

## LGRF
MMP-2
  MMP2 relative probability (RP): 13.9898
MMP-2; [3]
  Relative probability (RP) rank: 3427
  relative probability (RP): 13.99
MMP-9
  corresponding MMP9 relative probability (RP): 1.477

## LGRY
MMP-2
  relative probability (RP) of matching tetramer: 17.67
MMP-2; [11]
  relative probability (RP) (acc.to MMP2): 17.67
MMP-2; unique part of MMP2 selectome
  normalized RP - MMP2: 0.4838
MMP-9; [12]
  relative probability (RP) (acc.to MMP9): 1.95
MMP-9; unique part of MMP2 selectome
  normalized RP - MMP9: 0.03723

## LGTY
MMP-2
  MMP2 relative probability (RP): 6.755
MMP-2; [3]
  Relative probability (RP) rank: 6426
  relative probability (RP): 6.75
MMP-9
  corresponding MMP9 relative probability (RP): 0.2972

## LGVM
MMP-2
  MMP2 relative probability (RP): 4.758
MMP-2; [3]
  Relative probability (RP) rank: 7712
  relative probability (RP): 4.76
MMP-2; [4]
  relative probability (RP) (acc.to MMP2): 4.76
MMP-9
  corresponding MMP9 relative probability (RP): 1.791
MMP-9; [13]
  Relative probability (RP) rank: 10648
  relative probability (RP): 1.79
MMP-9; [5]
  relative probability (RP) (acc.to MMP9): 1.79

## LPKPLR
MMP-2; [1]
  relative probability (RP): 33.5622
MMP-9; [2]
  relative probability (RP): 48.2599

## LRAV
MMP-2; [7]
  relative probability (RP) (acc.to MMP2): 11.96
MMP-9; [9]
  relative probability (RP): 11.9
MMP-9; [10]
  relative probability (RP) (acc.to MMP9): 11.9

## LREL
MMP-2; [6]
  relative probability (RP) (acc.to MMP2): 21.53
MMP-2
  relative probability (RP) of matching tetramer: 21.53
MMP-2; [7]
  relative probability (RP) (acc.to MMP2): 21.53
MMP-9; [8]
  relative probability (RP) (acc.to MMP9): 21.21
MMP-9; [9]
  relative probability (RP): 21.21
MMP-9; [10]
  relative probability (RP) (acc.to MMP9): 21.21

## LRGL
MMP-2; [4]
  relative probability (RP) (acc.to MMP2): 20.33
MMP-9; [5]
  relative probability (RP) (acc.to MMP9): 28.75

## LSKI
MMP-2
  MMP2 relative probability (RP): 4.524
MMP-2; [3]
  Relative probability (RP) rank: 7909
  relative probability (RP): 4.52
MMP-2; [4]
  relative probability (RP) (acc.to MMP2): 4.52
MMP-9
  corresponding MMP9 relative probability (RP): 0.06898
MMP-9; [13]
  Relative probability (RP) rank: 65498
  relative probability (RP): 0.07
MMP-9; [5]
  relative probability (RP) (acc.to MMP9): 0.07

## LSPFGQ
MMP-2; [1]
  relative probability (RP): 16.8686
MMP-9; [2]
  relative probability (RP): 36.0266

## LSWL
MMP-2; [6]
  relative probability (RP) (acc.to MMP2): 25.56
MMP-2
  relative probability (RP) of matching tetramer: 25.56
MMP-2; [7]
  relative probability (RP) (acc.to MMP2): 25.56
MMP-9; [8]
  relative probability (RP) (acc.to MMP9): 20.21
MMP-9; [9]
  relative probability (RP): 20.21
MMP-9; [10]
  relative probability (RP) (acc.to MMP9): 20.21

## MAGM
MMP-2
  MMP2 relative probability (RP): 21.4504
MMP-2; [3]
  Relative probability (RP) rank: 1484
  relative probability (RP): 21.45
MMP-9
  corresponding MMP9 relative probability (RP): 0.06237

## MASQ
MMP-2
  MMP2 relative probability (RP): 16.7049
MMP-2; [3]
  Relative probability (RP) rank: 2583
  relative probability (RP): 16.7
MMP-9
  corresponding MMP9 relative probability (RP): 0

## MGPLGQ
MMP-2; [1]
  relative probability (RP): 28.8115
MMP-9; [2]
  relative probability (RP): 44.3652

## MGSL
MMP-2
  MMP2 relative probability (RP): 28.8961
MMP-2; [3]
  Relative probability (RP) rank: 452
  relative probability (RP): 28.9
MMP-9
  corresponding MMP9 relative probability (RP): 3.398

## MNML
MMP-2
  relative probability (RP) of matching tetramer: 8.39
MMP-2; [11]
  relative probability (RP) (acc.to MMP2): 8.39
MMP-2; unique part of MMP2 selectome
  normalized RP - MMP2: 0.2297
MMP-9; [12]
  relative probability (RP) (acc.to MMP9): 0.4
MMP-9; unique part of MMP2 selectome
  normalized RP - MMP9: 0.007637

## MRPVGH
MMP-2; [1]
  relative probability (RP): 23.4937
MMP-9; [2]
  relative probability (RP): 20.8057

## MSAF
MMP-2
  MMP2 relative probability (RP): 20.9521
MMP-2; [3]
  Relative probability (RP) rank: 1585
  relative probability (RP): 20.95
MMP-9
  corresponding MMP9 relative probability (RP): 1.271

## MSPANI
MMP-2; [1]
  relative probability (RP): 33.5547
MMP-9; [2]
  relative probability (RP): 46.3162

## NAQL
MMP-2
  relative probability (RP) of matching tetramer: 9.69
MMP-2; [11]
  relative probability (RP) (acc.to MMP2): 9.69
MMP-2; unique part of MMP2 selectome
  normalized RP - MMP2: 0.2653
MMP-9; [12]
  relative probability (RP) (acc.to MMP9): 0
MMP-9; unique part of MMP2 selectome
  normalized RP - MMP9: 0

## NEGL
MMP-2; [4]
  relative probability (RP) (acc.to MMP2): 0.16
MMP-9; [5]
  relative probability (RP) (acc.to MMP9): 0

## NPMPIR
MMP-2; [1]
  relative probability (RP): 26.0717
MMP-9; [2]
  relative probability (RP): 45.0822

## NPQNIR
MMP-2; [1]
  relative probability (RP): 27.128
MMP-9; [2]
  relative probability (RP): 44.0295

## NRGF
MMP-2
  relative probability (RP) of matching tetramer: 6.81
MMP-2; [11]
  relative probability (RP) (acc.to MMP2): 6.81
MMP-2; unique part of MMP2 selectome
  normalized RP - MMP2: 0.1865
MMP-9; [12]
  relative probability (RP) (acc.to MMP9): 0
MMP-9; unique part of MMP2 selectome
  normalized RP - MMP9: 0

## NRPNNL
MMP-2; [1]
  relative probability (RP): 27.0562
MMP-9; [2]
  relative probability (RP): 38.7188

## NVARPM
MMP-2; [1]
  relative probability (RP): 21.8664
MMP-9; [2]
  relative probability (RP): 34.8794

## PAAV
MMP-2; [7]
  relative probability (RP) (acc.to MMP2): 30.72
MMP-9; [9]
  relative probability (RP): 36.05
MMP-9; [10]
  relative probability (RP) (acc.to MMP9): 36.05

## PADF
MMP-2; [6]
  relative probability (RP) (acc.to MMP2): 20.44
MMP-2
  relative probability (RP) of matching tetramer: 20.44
MMP-9; [8]
  relative probability (RP) (acc.to MMP9): 12.85

## PAGE
MMP-2; [4]
  relative probability (RP) (acc.to MMP2): 0.05
MMP-9; [5]
  relative probability (RP) (acc.to MMP9): 0.06

## PAGVKA
MMP-2; [1]
  relative probability (RP): 28.6381
MMP-9; [2]
  relative probability (RP): 31.0803

## PANA
MMP-2
  relative probability (RP) of matching tetramer: 17.73
MMP-2; [11]
  relative probability (RP) (acc.to MMP2): 17.73
MMP-2; unique part of MMP2 selectome
  normalized RP - MMP2: 0.4855
MMP-9; [12]
  relative probability (RP) (acc.to MMP9): 2.68
MMP-9; unique part of MMP2 selectome
  normalized RP - MMP9: 0.05116
